# Values quoted from earlier work, collected in patent US20130178495A1, “IBUDILAST FOR RELIEVING NEGATIVE EFFECTS OF MEDICATION OVERUSE HEADACHE” (MediciNova, Inc., priority 2011, published 2013).
# Key:
# [1] = rat, bilateral indwelling catheters between the meninges and the skull
# [2] = single patient, 20 mg per day of ibudilast
smiles,measurement,setting,value
CC(C)C(=O)c1c(C(C)C)nn2ccccc12 [ibudilast],facial allodynia,[1],blocked and reversed facial allodynia
same,frequency and intensity of migraine,[2]; migraine on the right side continued,decreased
same,daily headaches,[2]; no control,disappeared in one week
